Measured values as given in US5998406A, “Oxazolidinone derivatives and pharmaceutical compositions” (Pharmacia & Upjohn Company, priority 1998, dated 1999).
In brackets after ≈: the same amount, converted by molar mass.

Assays:
Type in all cases: cell-based
[1] = system: S. pueumoniae, culture 9912; experiment: MIC, standard agar dilution, S. pueumoniae culture 9912; settings: Mueller Hinton agar, overnight at 35 C, read-out: SPNE 9912 MIC
Description: (§1) The in vitro MICs of test compounds are determined by a standard agar dilution method. A stock drug solution of each analog is prepared in the preferred solvent, usually DMSO:H2 O(1:3). Serial 2-fold dilutions of each sample are made using 1.0 ml aliquots of sterile distilled water. To each 1.0 ml aliquot of drug is added 9 ml of molten Mueller Hinton agar medium. The drug-supplemented agar is mixed, poured into 15×100 mm petri dishes, and allowed to solidify and dry prior to inoculation.
(§2) Vials of each of the test organisms are maintained frozen in the vapor phase of a liquid nitrogen freezer. Test cultures are grown overnight at 35 C. on the medium appropriate for the organism. Colonies are harvested with a sterile swab, and cell suspensions are prepared in Trypticase Soy broth (TSB) to equal the turbidity of a 0.5 McFarland standard. A 1:20 dilution of each suspension is made in TSB. The plates containing the drug supplemented agar are inoculated with a 0.001 ml drop of the cell suspension using a Steers replicator, yielding approximately 10^4 to 10^5 cells per spot. The plates are incubated overnight at 35 C.
(§3) Following incubation the Minimum Inhibitory Concentration (MIC μg/ml), the lowest concentration of drug that inhibits visible growth of the organism, is read and recorded.
^d) S. pueumoniae, culture 9912

S. aureus, culture 9213 = experiment: MIC, standard agar dilution, S. aureus culture 9213; settings: Staphylococcus aureus, CULTURE9213, Mueller Hinton agar, overnight at 35 C, read-out: SAUR 9213 MIC
Description: as §1, §2, §3
^a) S. aureus, culture 9213

[2] = system: M. catarrhalis, culture 30610; experiment: MIC, standard agar dilution, M. catarrhalis culture 30610; settings: Moraxella catarrhalis, CULTURE30610, Mueller Hinton agar, overnight at 35 C, read-out: MCAT 30610 MIC
Description: as §1, §2, §3
^f) M. catarrhalis, culture 30610

[3] = system: E. faecalis, culture 9217; experiment: MIC, standard agar dilution, E. faecalis culture 9217; settings: Enterococcus faecalis, CULTURE9217, Mueller Hinton agar, overnight at 35 C, read-out: EFAE 9217 MIC
Description: as §1, §2, §3
^c) E. faecalis, culture 9217

[4] = system: S. epidermidis, culture 12084; experiment: MIC, standard agar dilution, S. epidermidis culture 12084; settings: Staphylococcus epidermidis, CULTURE12084, Mueller Hinton agar, overnight at 35 C, read-out: SEPI 12084 MIC
Description: as §1, §2, §3
^b) S. epidermidis, culture 12084

[5] = system: H. influenzae, culture 30063; experiment: MIC, standard agar dilution, H. influenzae culture 30063; settings: Haemophilus influenzae, CULTURE30063, Mueller Hinton agar, overnight at 35 C, read-out: HINF 30063 MIC
Description: as §1, §2, §3
^e) H. influenzae, culture 30063

Compound	MIC [1]	MIC (S. aureus, culture 9213)	MIC [2]	MIC [3]	MIC [4]	MIC [5]
CC(=O)NC[C@H]1CN(c2ccc(N3CCC(=O)N(C)CC3)c(F)c2)C(=O)O1 [Example 3, (S)-N-[[3-[3-fluoro-4-(1,2,3,4,6,7-hexahydro-4-methyl-5-oxo-1,4-diazepin-1-yl)phenyl]-2-oxo-5-oxazolidinyl]methyl]-acetamide]	1 µg/mL (≈ 2.64 µM)	4 µg/mL (≈ 10.6 µM)	8 µg/mL (≈ 21.1 µM)	4 µg/mL (≈ 10.6 µM)	1 µg/mL (≈ 2.64 µM)	32 µg/mL (≈ 84.6 µM)
CC(=O)NC[C@H]1CN(c2ccc(N3CCNC(=O)CC3)c(F)c2)C(=O)O1 [Example 1, (S)-N-[[3-[3-fluoro-4-(1,2,3,4,6,7-hexahydro-5-oxo-1,4-diazepin-1-yl)phenyl]-2-oxo-5-oxazolidinyl]methyl]acetamide]	0.5 µg/mL (≈ 1.37 µM)	4 µg/mL (≈ 11 µM)	8 µg/mL (≈ 22 µM)	4 µg/mL (≈ 11 µM)	1 µg/mL (≈ 2.74 µM)	8 µg/mL (≈ 22 µM)
CC(=S)NC[C@H]1CN(c2ccc(N3CCC(=O)N(C)CC3)c(F)c2)C(=O)O1 [Example 4, (S)-N-[[3-[3-fluoro-4-(1,2,3,4,6,7-hexahydro-4-methyl-5-oxo-1,4-diazepin-1-yl)phenyl]-2-oxo-5-oxazolidinyl]methyl]-thioacetamide]	< 0.5 µg/mL	1 µg/mL (≈ 2.54 µM)	2 µg/mL (≈ 5.07 µM)	1 µg/mL (≈ 2.54 µM)	< 0.5 µg/mL	8 µg/mL (≈ 20.3 µM)
